Assay results published in patent publication US20130059295A1 (priority 2011, published 2013).
≈ marks a conversion by molar mass, not a printed value.

How the values were obtained:
[1] = test system: fatty acid biosensor plasmids pLR-rfp and pAR-rfp in fadE knockout DH1 E. coli cells; experiment: microbe, parasite or virus in culture; assay type: cell-based
[2] = test system: fatty acid biosensor plasmids in DH1 fadD knockout strain; assay type: cell-based, E. coli; conditions: up to the addition of 1 mM oleic acid
[3] = test system: fatty acid sensing strain (pBARk-RFP and pE8a-fadR in E. coli); experiment: Fatty acid biosensor pBARk-RFP with pE8a-fadR, oleic acid added to growth media (Example 3); assay type: cell-based; conditions: plasmid pBARk-RFP, over a broad range of oleic acid concentration, 12 hours
FadR = FadR (Escherichia coli, UniProt P0A8V6); conditions: read-out: Kd of FadR binding to oleic acid; cited from earlier work
[4] = test system: E. coli fadBA promoter (PfadBA); conditions: upon the addition of 5 mM oleic acid; cited from earlier work
[5] = cited from earlier work
HucR = conditions: read-out: Kd (apparent), one value printed for the listed ligands; cited from earlier work

Chain of FadR (P0A8V6 whole entry): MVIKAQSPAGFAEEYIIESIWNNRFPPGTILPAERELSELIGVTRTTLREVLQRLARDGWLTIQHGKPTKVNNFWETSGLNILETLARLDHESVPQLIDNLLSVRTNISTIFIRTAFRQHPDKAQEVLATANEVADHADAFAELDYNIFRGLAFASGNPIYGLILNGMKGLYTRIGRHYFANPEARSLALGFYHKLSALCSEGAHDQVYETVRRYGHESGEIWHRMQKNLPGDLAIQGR

| SMILES | EC50 ([1]; Escherichia coli, 12 h, read-out: apparent half maximal effective concentration (EC50)) [µM] | fluorescence change upon the addition of oleic acid ([1]; pAR-rfp, fadE knockout DH1 E. coli) [fold] | induction of RFP expression [2] | increase in fluorescence signal [3] | Kd (FadR) [µM] | increased expression level of PfadBA [4] [fold] | solubility limit in aqueous solution [5] [mM] | Kd (HucR) [µM] |
| --- | --- | --- | --- | --- | --- | --- | --- | --- |
| CCCCCCCC/C=C\CCCCCCCC(=O)O [oleic acid] | 35 to 60 | 60 | no induction of RFP expression was detected | more than 50 fold | 5 | 5 | 5 (≈ 1410 µg/mL) |  |
| O=C(O)c1ccccc1O [salicylate] |  |  |  |  |  |  |  | 11.6 |
| O=c1[nH]c(=O)c2[nH]c(=O)[nH]c2[nH]1 [uric acid] |  |  |  |  |  |  |  | 11.6 |
